# Measurements reported in patent publication US20100113607A1, “Pharmaceutical Compositions” (priority 2000, published 2010).
# Test system: onychomycosis
# Test: Topical treatment of a laser-perforated nail of a patient suffering from onychomycosis
# Format: in vivo, human
# Settings: composition containing 10% terbinafine by total weight, administered to laser-perforated nail, once daily for 12 weeks
# Method: A composition containing 10% terbinafine based on the total weight of the composition is prepared and administered to a laser-perforated nail of a patient suffering from onychomycosis once daily for 12 weeks.
structure (smiles),measurement,value
CN(C/C=C/C#CC(C)(C)C)Cc1cccc2ccccc12 [terbinafine],clinical effectiveness,progress of clinical effectiveness is seen with growth of the healthy nail
